Laboratory results reported in article PMC4060991, “The Human Orphan Nuclear Receptor Tailless (TLX, NR2E1) Is Druggable” (PLoS ONE, 2014).

What follows are compounds tested against ERβ LBD (Homo sapiens, UniProt Q92731) (assay: DSF on purified ERβ LBD). Settings: compound 500 µM; unliganded Tm ∼51°C.
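For hit in DSF screen (able to bind TLX LBD, Tm shift 0.9°C or more), Table S1 in this document: thermal unfolding followed by Sypro-Orange fluorescence (excitation 465 nm, emission 610 nm) in 384-well plates, Tm taken from the first derivative of the denaturation curve, duplicate samples.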
Experimental: Protein stability was assessed with DSF in absence or presence of test compounds in a LightCycler 480 II qRT-PCR Detection System (Roche) in 384-well format. Sypro-Orange dye (Life Technologies) was used to monitor fluorescence, with filters for fluorescence excitation at 465 nm and for fluorescence emission at 610 nm. […] Tested sample mixtures were heated from 25°C to 96°C at a rate of 0.05°C/sec with 11 acquisitions per °C. Each compound was tested in duplicates. The melting temperature (Tm) for each sample was deduced by the ThermoQ Analytical software (HMRI) from the first derivative of the corresponding denaturation curve generated by the LightCycler 480 software. The same protocol was applied to investigate the stability of purified ERβ and LXRβ LBDs in presence or absence of the compounds. The optimal final concentrations for these experiments were 0.02 mg/mL for ERβ LBD and 0.20 mg/mL for LXRβ LBD. All DSF-based analyses were performed using freshly purified protein.

ERβ LBD, sequence (Q92731 261-530): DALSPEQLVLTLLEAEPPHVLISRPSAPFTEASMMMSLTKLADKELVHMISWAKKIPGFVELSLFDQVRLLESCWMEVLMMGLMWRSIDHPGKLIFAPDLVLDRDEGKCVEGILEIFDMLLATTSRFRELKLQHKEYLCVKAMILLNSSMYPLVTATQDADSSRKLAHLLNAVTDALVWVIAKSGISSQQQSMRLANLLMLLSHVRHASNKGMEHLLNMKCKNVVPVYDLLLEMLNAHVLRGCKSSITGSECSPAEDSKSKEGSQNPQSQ

| Compound | melting temperature shift of ERβ LBD |
| --- | --- |
| C[C@]12CC[C@@H]3c4ccc(O)cc4CC[C@H]3[C@@H]1CC[C@@H]2O [E2, estradiol] | shifted upward |

These compounds were tested against TLX LBD (Homo sapiens, UniProt Q9Y466) (assay: Differential scanning fluorimetry (DSF) on purified TLX LBD). Settings: compound 500 µM.
Type: binding
Set-up: cDNA fragments encoding human TLX LBD (a.a. 187–385) were cloned; His6 followed by TEV protease cleavage site (N); made in house; host or cells: E. coli BL21 (DE3) star
Experimental: Protein stability was assessed with DSF in absence or presence of test compounds in a LightCycler 480 II qRT-PCR Detection System (Roche) in 384-well format. Sypro-Orange dye (Life Technologies) was used to monitor fluorescence, with filters for fluorescence excitation at 465 nm and for fluorescence emission at 610 nm. […] Each compound was tested in duplicates. The melting temperature (Tm) for each sample was deduced by the ThermoQ Analytical software (HMRI) from the first derivative of the corresponding denaturation curve generated by the LightCycler 480 software. […] All DSF-based analyses were performed using freshly purified protein.

TLX LBD, sequence (Q9Y466 187-385): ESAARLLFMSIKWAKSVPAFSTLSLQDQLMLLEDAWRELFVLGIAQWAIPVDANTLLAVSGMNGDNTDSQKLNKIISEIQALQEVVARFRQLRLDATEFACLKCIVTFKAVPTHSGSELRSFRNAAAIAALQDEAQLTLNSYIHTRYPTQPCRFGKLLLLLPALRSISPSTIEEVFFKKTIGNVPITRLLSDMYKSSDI

| Compound | hit in DSF screen (able to bind TLX LBD, Tm shift 0.9°C or more), Table S1 |
| --- | --- |
| O=C([O][Hg][CH2]C1COC([CH2][Hg][O]C(=O)c2ccccc2)CO1)c1ccccc1 (stereo not drawn) [benzoyloxy-[[5-(benzoyloxymercuriomethyl)-1,4-dioxan-2-yl]methyl]mercury] | Hits from DSF |
| CN(C)c1ccc(C=CC(=O)[O-])cc1.CN(C)c1ccc(C=CC(=O)[O-])cc1.[Cu+2] [copper 3-(4-dimethylaminophenyl)prop-2-enoate] | Hits from DSF |
| Acetyloxymercury; Phenanthrene | Hits from DSF |
| Daptomycin [reference compound] | Hits from DSF |
| Kauroic acid | Hits from DSF |
